The text below walks through data of US8586739B2, “Heterocyclic compounds and their uses” (Amgen Inc., priority 2007, dated 2013).

pIC50: −log10 of the molar value.

Test [1] has as its target T1, PI3Kδ (Homo sapiens, UniProt O00329).
T1 construct: Full length p110 subunits of PI3k α, β and δ, N-terminally labeled with polyHis tag; polyHis (N); made in house; host or cells: Sf9 insect cells (baculovirus)
The test is described as follows: In vitro enzyme assay of recombinant PI3K (residual ATP bioluminescence). In kind it is biochemical. The procedure:
Recombinant Expression of PI3Ks
Full length p110 subunits of PI3k α, β and δ, N-terminally labeled with polyHis tag, were coexpressed with p85 with Baculo virus expression vectors in sf9 insect cells. P110/p85 heterodimers were purified by sequential Ni-NTA, Q-HP, Superdex-100 chromatography. Purified α, β and δ isozymes were stored at −20° C. in 20 mM Tris, pH 8, 0.2M NaCl, 50% glycerol, 5 mM DTT, 2 mM Na cholate. Truncated PI3Kγ, residues 114-1102, N-terminally labeled with polyHis tag, was expessed with Baculo virus in Hi5 insect cells. The γ isozyme was purified by sequential Ni-NTA, Superdex-200, Q-HP chromatography. The γ isozyme was stored frozen at −80° C. in NaH2PO4, pH 8, 0.2M NaCl, 1% ethylene glycol, 2 mM β-mercaptoethanol.
Assays were performed in 25 μL with the above final concentrations of components in white polyproplyene plates (Costar 3355). Phospatidyl inositol phosphoacceptor, PtdIns(4,5)P2 P4508, was from Echelon Biosciences. The ATPase activity of the alpha and gamma isozymes was not greatly stimulated by PtdIns(4,5)P2 under these conditions and was therefore omitted from the assay of these isozymes. Test compounds were dissolved in dimethyl sulfoxide and diluted with three-fold serial dilutions. The compound in DMSO (1 μL) was added per test well, and the inhibition relative to reactions containing no compound, with and without enzyme was determined. After assay incubation at room temperature, the reaction was stopped and residual ATP determined by addition of an equal volume of a commercial ATP bioluminescence kit (Perkin Elmer EasyLite) according to the manufacturer's instructions, and detected using a AnalystGT luminometer.

In test [2] the test system is human B cells. As to the kind of experiment: Human B cells proliferation stimulated by anti-IgM (3H thymidine). In kind it is cell-based. The conditions noted are these: Homo sapiens, B-cell, 72 h, purified human B cells, anti-Human IgM + CD40L-LZ. Summed up:
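Human B cells were magnetically purified from PBMCs and plated at 50000/well in DMEM+5% FCS. Medium containing 250 ng/mL CD40L-LZ and 2 μg/mL anti-IgM was combined with PI3K inhibitor medium, and cells were incubated 72 h at 37° C. Proliferation was read by 0.5-1 uCi/well ^3H thymidine pulse (~18 h).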

T1 sequence (O00329 whole entry): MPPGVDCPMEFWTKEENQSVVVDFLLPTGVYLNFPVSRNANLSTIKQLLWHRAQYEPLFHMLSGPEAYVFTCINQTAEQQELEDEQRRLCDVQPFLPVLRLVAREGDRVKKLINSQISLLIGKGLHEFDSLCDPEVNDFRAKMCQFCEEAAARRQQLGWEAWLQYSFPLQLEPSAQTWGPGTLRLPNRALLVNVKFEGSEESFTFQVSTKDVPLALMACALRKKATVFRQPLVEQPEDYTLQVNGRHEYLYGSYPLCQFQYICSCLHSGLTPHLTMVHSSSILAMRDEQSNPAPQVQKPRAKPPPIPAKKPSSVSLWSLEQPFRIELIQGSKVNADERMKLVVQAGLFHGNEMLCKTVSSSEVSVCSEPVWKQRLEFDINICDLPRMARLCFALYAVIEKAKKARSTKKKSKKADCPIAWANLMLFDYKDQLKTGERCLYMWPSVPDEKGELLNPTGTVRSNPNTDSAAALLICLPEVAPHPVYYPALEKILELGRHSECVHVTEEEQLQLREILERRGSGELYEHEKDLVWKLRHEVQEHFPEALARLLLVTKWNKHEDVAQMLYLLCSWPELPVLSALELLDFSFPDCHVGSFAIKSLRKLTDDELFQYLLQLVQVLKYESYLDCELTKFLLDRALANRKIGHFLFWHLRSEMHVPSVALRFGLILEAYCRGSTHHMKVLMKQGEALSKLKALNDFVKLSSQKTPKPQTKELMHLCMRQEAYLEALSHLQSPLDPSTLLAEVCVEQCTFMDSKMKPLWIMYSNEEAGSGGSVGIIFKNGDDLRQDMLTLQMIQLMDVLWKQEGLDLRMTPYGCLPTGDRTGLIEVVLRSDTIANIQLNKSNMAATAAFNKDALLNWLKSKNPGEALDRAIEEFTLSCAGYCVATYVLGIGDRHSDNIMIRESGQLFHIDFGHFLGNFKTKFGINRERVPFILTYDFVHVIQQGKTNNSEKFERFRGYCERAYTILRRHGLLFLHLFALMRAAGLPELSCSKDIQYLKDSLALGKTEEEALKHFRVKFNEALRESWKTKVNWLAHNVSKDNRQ
T1 sequence (P27986 whole entry partner): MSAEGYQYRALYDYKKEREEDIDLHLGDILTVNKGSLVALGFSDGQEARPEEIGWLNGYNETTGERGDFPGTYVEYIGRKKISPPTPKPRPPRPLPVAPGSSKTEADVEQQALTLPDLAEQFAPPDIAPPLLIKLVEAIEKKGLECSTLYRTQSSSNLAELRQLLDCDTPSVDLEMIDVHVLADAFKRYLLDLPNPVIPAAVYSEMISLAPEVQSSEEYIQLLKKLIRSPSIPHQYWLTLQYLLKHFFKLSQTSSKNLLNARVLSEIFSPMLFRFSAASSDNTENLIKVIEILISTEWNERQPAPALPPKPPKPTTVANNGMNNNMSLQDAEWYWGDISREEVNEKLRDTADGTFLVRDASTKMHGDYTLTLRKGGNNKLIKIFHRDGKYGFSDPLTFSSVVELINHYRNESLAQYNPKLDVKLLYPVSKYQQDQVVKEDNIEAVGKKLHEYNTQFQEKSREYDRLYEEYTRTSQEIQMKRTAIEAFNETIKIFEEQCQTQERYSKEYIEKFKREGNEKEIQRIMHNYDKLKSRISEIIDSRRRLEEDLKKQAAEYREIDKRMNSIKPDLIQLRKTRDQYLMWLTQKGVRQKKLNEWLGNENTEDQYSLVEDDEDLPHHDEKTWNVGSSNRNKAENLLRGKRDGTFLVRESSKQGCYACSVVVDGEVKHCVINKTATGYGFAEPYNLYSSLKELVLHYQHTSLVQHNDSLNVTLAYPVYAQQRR

As to `Fc1cc(F)cc(-c2nc3c(Cl)cccc3cc2CNc2ncnc3[nH]cnc23)c1` [Example 33, N-((8-Chloro-2-(3,5-difluorophenyl)quinolin-3-yl)methyl)-9H-purin-6-amine], the pIC50 (commonly −log10 of the IC50, conventionally taken in molar units) in test [1] was 7.12.

As to `Cc1ccccc1-c1nc2c(C)cccc2cc1CSc1ncnc2[nH]cnc12` [Example 12, 3-((9H-Purin-6-ylthio)methyl)-8-methyl-2-o-tolylquinoline], the pIC50 in test [1] is 6.05.

For the molecule `Cc1cccc2cc(COc3ncnc4[nH]ccc34)c(-c3ccccc3)nc12` [Example 15, 3-((7H-Pyrrolo[2,3-d]pyrimidin-4-yloxy)methyl)-8-methyl-2-phenylquinoline], the negative logarithm of the IC50 (pIC50) in test [1] was 7.17.

For the molecule `Fc1ccc2nc(-c3ccccc3Cl)c(CNc3ncnc4[nH]cnc34)cc2c1` [Example 37, N-((2-(2-Chlorophenyl)-6-fluoroquinolin-3-yl)methyl)-9H-purin-6-amine], the negative-log IC50 (pIC50) in test [1] is 5.77.

Take `Cc1cccc2nc(-c3ccccc3Cl)c(CNc3ncnc4[nH]cnc34)nc12` [Example 18, N-((3-(2-Chlorophenyl)-8-methylquinoxalin-2-yl)methyl)-9H-purin-6-amine]: the negative-log IC50 (pIC50) in test [1] is 6.49.

Consider `Cc1cccc2cc(COc3ncnc4[nH]cnc34)c(-c3ccccc3Cl)nc12` [Example 10, 3-((9H-Purin-6-yloxy)methyl)-2-(2-chlorophenyl)-8-methylquinoline], for which the pIC50 in test [1] is 7.60.

On to `Cc1cccc2nc(CNc3ncnc4[nH]cnc34)c(-c3ccccc3Cl)nc12` [Example 19, N-((3-(2-Chlorophenyl)-5-methylquinoxalin-2-yl)methyl)-9H-purin-6-amine], for which, in test [1], the pIC50 is 7.18.

As to `CS(=O)(=O)c1ccccc1-c1nc2c(Cl)cccc2cc1CNc1ncnc2[nH]cnc12` [Example 35, N-((8-chloro-2-(2-(methylsulfonyl)phenyl)quinolin-3-yl)methyl)-9H-purin-6-amine], the negative-log IC50 (pIC50) in test [1] is 6.65.

Consider `Cc1ccccc1-c1nc2c(C)cccc2cc1C(C)Oc1ncnc2[nH]cnc12` (stereo not drawn) [Example 5, 3-(1-(9H-Purin-6-yloxy)ethyl)-8-methyl-2-o-tolylquinoline], for which the negative logarithm of the IC50 (pIC50) in test [1] is 7.92.

As for `C[C@H](Nc1ncnc2[nH]cnc12)c1cc2cccc(Cl)c2nc1-c1cscn1` [Example 44, N-((S)-1-(8-Chloro-2-(thiazol-4-yl)quinolin-3-yl)ethyl)-9H-purin-6-amine], the negative-log IC50 (pIC50) in test [1] was 7.80.

For `COc1ccccc1-c1nc2c(C)cccc2cc1COc1ncnc2[nH]cnc12` [Example 7, 3-((9H-Purin-6-yloxy)methyl)-2-(2-methoxyphenyl)-8-methylquinoline], in test [1], the pIC50 was 7.42.

As to `Cc1cccc2cc(CNc3ncnc4[nH]cnc34)c(-c3ccccc3C(F)(F)F)nc12` [Example 16, N-((8-Methyl-2-(2-(trifluoromethyl)phenyl)quinolin-3-yl)methyl)-9H-purin-6-amine], in test [1], the pIC50 was 7.04.

For the molecule `Cc1ccccc1-c1nc2c(C)cccc2cc1COc1ncnc2[nH]ccc12` [Example 14], the pIC50 in test [1] was 7.25.

For `Cc1cccc2cc(COc3ncnc4[nH]cnc34)c(-c3ccccc3-c3ccccc3)nc12` [Example 8, 3-((9H-Purin-6-yloxy)methyl)-2-(biphenyl)-8-methylquinoline], the pIC50 in test [1] was 7.66.

Consider `C[C@H](Nc1ncnc2nc[nH]c12)c1cc2cccc(F)c2nc1-c1cccc(F)c1` [N-((S)-1-(8-fluoro-2-(3-fluorophenyl)quinolin-3-yl)ethyl)-7H-purin-6-amine], for which the negative-log IC50 (pIC50) in test [2] is 8.29.

For the molecule `CC[C@H](Nc1ncnc2[nH]cnc12)c1cc2cccc(Cl)c2nc1-c1cccc(F)c1` [N-((1S)-1-(8-chloro-2-(3-fluorophenyl)-3-quinolinyl)propyl)-9H-purin-6-amine], the pIC50 in test [2] is 8.28.

With `C[C@H](Nc1ncnc2[nH]cnc12)c1cc2ccc(F)cc2nc1-c1ccccc1` [N-((1S)-1-(7-fluoro-2-phenyl-3-quinolinyl)ethyl)-9H-purin-6-amine], in test [2], the pIC50 is 8.29.

With `C[C@H](Nc1ncnc2[nH]cnc12)c1cc2ccc(F)cc2nc1-c1ccccc1S(C)(=O)=O` [N-((1S)-1-(7-fluoro-2-(2-(methylsulfonyl)phenyl)-3-quinolinyl)ethyl)-9H-purin-6-amine], the pIC50 in test [2] was 8.17.

Turning to `Clc1ccccc1-c1nc2c(Cl)cccc2cc1CNc1ccnc2[nH]cnc12` [N-((8-chloro-2-(2-chlorophenyl)-3-quinolinyl)methyl)-3H-imidazo[4,5-b]pyridin-7-amine], in test [2], the pIC50 is 6.44.

Turning to `Clc1cccc2cc(CNc3ncnc4[nH]cnc34)c(-c3ccccc3-c3nn[nH]n3)nc12` [N-((8-chloro-2-(2-(2H-tetrazol-5-yl)phenyl)-3-quinolinyl)methyl)-9H-purin-6-amine], in test [2], the pIC50 was 5.01.

Turning to `FC(F)(F)c1ccncc1-c1nc2c(Cl)cccc2cc1CNc1ncnc2[nH]cnc12` [N-((8-chloro-2-(4-(trifluoromethyl)-3-pyridinyl)-3-quinolinyl)methyl)-9H-purin-6-amine], the negative-log IC50 (pIC50) in test [2] is 7.16.

Turning to `C[C@H](Nc1ncnc2[nH]cnc12)c1cc2cccc(Cl)c2nc1-c1cccc(F)c1` [N-((1S)-1-(8-chloro-2-(3-fluorophenyl)-3-quinolinyl)ethyl)-9H-purin-6-amine], in test [2], the pIC50 was 8.62.

For `C[C@H](Nc1ncnc2[nH]cnc12)c1cc2cccc(C#N)c2nc1-c1ccccn1` [3-((1S)-1-(9H-purin-6-ylamino)ethyl)-2-(2-pyridinyl)-8-quinolinecarbonitrile], the negative logarithm of the IC50 (pIC50) in test [2] was 7.33.

With `C[C@H](Nc1ncnc2[nH]cnc12)c1cc2cccc(Cl)c2nc1-c1ccccn1` [N-((1S)-1-(8-chloro-2-(2-pyridinyl)-3-quinolinyl)ethyl)-9H-purin-6-amine], the negative logarithm of the IC50 (pIC50) in test [2] was 8.49.

`C[C@H](Nc1ncnc2[nH]cnc12)c1cc2cccc(-c3ccccc3)c2nc1-c1ccccc1` [N-((1S)-1-(2,8-diphenyl-3-quinolinyl)ethyl)-9H-purin-6-amine]: the negative logarithm of the IC50 (pIC50) in test [2] is 7.73.

On to `Cc1cc(C)n(-c2nc3c(Cl)cccc3cc2[C@H](C)Nc2ncnc3[nH]cnc23)n1` [N-((1S)-1-(8-chloro-2-(3,5-dimethyl-1H-pyrazol-1-yl)-3-quinolinyl)ethyl)-9H-purin-6-amine], for which the pIC50 in test [2] was 8.58.

As to `Cc1cccnc1-c1nc2c(Cl)cccc2cc1[C@H](C)Nc1ncnc2[nH]cnc12` [N-((1S)-1-(8-chloro-2-(3-methyl-2-pyridinyl)-3-quinolinyl)ethyl)-9H-purin-6-amine], the pIC50 in test [2] is 7.48.

For `C[C@H](Nc1ncnc2[nH]cnc12)c1nc2cccc(Cl)c2cc1-c1cccc(F)c1` [N-((1S)-1-(5-chloro-3-(3-fluorophenyl)-2-quinolinyl)ethyl)-9H-purin-6-amine], the pIC50 in test [2] was 8.06.

`CC(Oc1ccc(F)cc1-c1nc2c(Cl)cccc2cc1CNc1ncnc2[nH]cnc12)c1ccccc1` (stereo not drawn) [N-((8-chloro-2-(5-fluoro-2-(1-phenylethoxy)phenyl)-3-quinolinyl)methyl)-9H-purin-6-amine]: in test [2], the negative logarithm of the IC50 (pIC50) is 6.25.

As for `C[C@H](Nc1ncnc2nc[nH]c12)c1cc2cccc(F)c2nc1-c1cc(F)cc(F)c1` [N-((1S)-1-(2-(3,5-difluorophenyl)-8-fluoro-3-quinolinyl)ethyl)-7H-purin-6-amine], in test [2], the negative logarithm of the IC50 (pIC50) was 8.15.

Turning to `CS(=O)(=O)c1cccc2nc(-c3ccccc3Cl)c(CNc3ncnc4[nH]cnc34)nc12` [N-((3-(2-chlorophenyl)-8-(methylsulfonyl)-2-quinoxalinyl)methyl)-9H-purin-6-amine], in test [2], the negative-log IC50 (pIC50) was 5.62.

In the case of `C[C@H](Nc1ncnc2[nH]cnc12)c1cc2cccc(Cl)c2nc1-c1nccs1` [N-((1S)-1-(8-chloro-2-(1,3-thiazol-2-yl)-3-quinolinyl)ethyl)-9H-purin-6-amine], the pIC50 in test [2] was 8.79.

Regarding `Cc1cccc(-c2nc3c(Cl)cccc3cc2[C@H](C)Nc2ncnc3[nH]cnc23)n1` [N-((1S)-1-(8-chloro-2-(6-methyl-2-pyridinyl)-3-quinolinyl)ethyl)-9H-purin-6-amine], the pIC50 in test [2] was 6.98.

Turning to `Fc1ccc2cc(CNc3ncnc4[nH]cnc34)c(-c3ccccc3Cl)nc2c1` [N-((2-(2-chlorophenyl)-7-fluoro-3-quinolinyl)methyl)-9H-purin-6-amine], in test [2], the negative-log IC50 (pIC50) was 7.05.

With `Cc1ncc(F)cc1-c1nc2c(Cl)cccc2cc1[C@H](C)Nc1ncnc2[nH]cnc12` [N-((1S)-1-(8-chloro-2-(5-fluoro-2-methyl-3-pyridinyl)-3-quinolinyl)ethyl)-9H-purin-6-amine], in test [2], the negative-log IC50 (pIC50) is 7.77.

Regarding `Fc1ccc(OCc2cccnc2)c(-c2nc3c(Cl)cccc3cc2CNc2ncnc3[nH]cnc23)c1` [N-((8-chloro-2-(5-fluoro-2-(3-pyridinylmethoxy)phenyl)-3-quinolinyl)methyl)-9H-purin-6-amine], the negative-log IC50 (pIC50) in test [2] is 6.75.
